{"source": "patent US20250101002A1", "about": "“DEUTERATED INFIGRATINIB COMPOUNDS” (QED Therapeutics, Inc., priority 2023, published 2025)", "origin": "cited, not measured here", "conditions": "cholangiocarcinoma indication", "note": "Structures can show the parent of a compound that is named as a salt.", "data": [{"smiles": "CCN1CCN(c2ccc(Nc3cc(N(C)C(=O)Nc4c(Cl)c(OC)cc(OC)c4Cl)ncn3)cc2)CC1", "note": "[infigratinib monophosphate, Monophosphate Salt Form A of 3-(2,6-dichloro-3,5-dimethoxy-phenyl)-1-{6-4-(4-ethyl-piperazin-1-yl)-phenylaminol-pyrimidin-4-yl}-1-methyl-urea]", "values": [{"measurement": "common adverse reactions", "setting": "infigratinib monophosphate dosed at 125 mg", "result": "nail toxicity, stomatitis, dry eye, fatigue, alopecia, palmar-plantar erythrodyesthesia syndrome, arthralgia, dysgeusia, constipation, abdominal pain, dry mouth, eyelash changes, diarrhea, dry skin, decreased appetite, blurred vision, and vomiting"}, {"measurement": "additional adverse reactions observed in corresponding clinical trials", "setting": "infigratinib monophosphate", "result": "ocular toxicity, hyperphosphatemia and soft tissue mineralization, infections, anemia, pyrexia, abdominal pain, hypercalcemia, and sepsis"}]}]}
